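These data come from cells grown in 96-well plates and exposed to compound for 48 hours at five concentrations. Abbreviation: GI50, concentration required for 50% inhibition of growth.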 Activity calls are given as the source filed them. Rule as the data show it: active = GI50 up to about 1.1 µM and inactive = higher.
Legend:
Test in all cases: NCI-60 cell line screen, 48 h
[1] = test system: 786-0
[2] = test system: A498
[3] = test system: CAKI-1
[4] = test system: CCRF-CEM
[5] = test system: DU-145
[6] = test system: HCC 2998
[7] = test system: HL-60
[8] = test system: HT-29
[9] = test system: KM12
[10] = test system: LOX IMVI
[11] = test system: MDA-MB-435
[12] = test system: MOLT-4
[13] = test system: NCI-H23
[14] = test system: NCI/ADR-RES
[15] = test system: OVCAR-3
[16] = test system: OVCAR-4
[17] = test system: OVCAR-8
[18] = test system: PC-3
[19] = test system: SF-268
[20] = test system: SF-295

| SMILES | GI50 [1] | GI50 [2] | GI50 [3] | GI50 [4] | GI50 [5] | GI50 [6] | GI50 [7] | GI50 [8] | GI50 [9] | GI50 [10] | GI50 [11] | GI50 [12] | GI50 [13] | GI50 [14] | GI50 [15] | GI50 [16] | GI50 [17] | GI50 [18] | GI50 [19] | GI50 [20] |
| --- | --- | --- | --- | --- | --- | --- | --- | --- | --- | --- | --- | --- | --- | --- | --- | --- | --- | --- | --- | --- |
| CCOC(=O)c1c[nH]c2cc3c(cc2c1=O)CCS3 | > 100 µM (inactive) | > 100 µM (inactive) | > 100 µM (inactive) | > 100 µM (inactive) | > 100 µM (inactive) | > 100 µM (inactive) | 91 µM (inactive) | 61.2 µM (inactive) | > 100 µM (inactive) | > 100 µM (inactive) | > 100 µM (inactive) | > 100 µM (inactive) | > 100 µM (inactive) | > 100 µM (inactive) | > 100 µM (inactive) | > 100 µM (inactive) | > 100 µM (inactive) | > 100 µM (inactive) | > 100 µM (inactive) | > 100 µM (inactive) |
| CCCCc1ccc(Nc2nc3c(ncn3COCCBr)c(=O)[nH]2)cc1 | > 100 µM (inactive) | > 100 µM (inactive) | > 100 µM (inactive) | > 100 µM (inactive) | > 100 µM (inactive) | > 100 µM (inactive) | > 100 µM (inactive) | > 100 µM (inactive) | > 100 µM (inactive) | > 100 µM (inactive) | > 100 µM (inactive) | > 100 µM (inactive) | > 100 µM (inactive) | > 100 µM (inactive) | > 100 µM (inactive) | > 100 µM (inactive) | > 100 µM (inactive) | > 100 µM (inactive) | > 100 µM (inactive) | > 100 µM (inactive) |
| CCOC(=O)c1c(C)n(Cc2ccccc2)c(=O)c2ccccc2c(=O)c2c(=O)ccc(=O)c1=2 | 27 µM (inactive) | > 100 µM (inactive) | 34.7 µM (inactive) | 42.1 µM (inactive) | > 100 µM (inactive) | 38.5 µM (inactive) | > 100 µM (inactive) | 42.8 µM (inactive) | > 100 µM (inactive) | 25.2 µM (inactive) | > 100 µM (inactive) | 54.7 µM (inactive) | 62.8 µM (inactive) | 92.7 µM (inactive) | 34.1 µM (inactive) | 45 µM (inactive) | > 100 µM (inactive) | 39.7 µM (inactive) | 57.7 µM (inactive) | > 100 µM (inactive) |
| O=C1CCCCC1CN1CCCCC1 (stereo not given) | > 100 µM (inactive) | > 100 µM (inactive) | > 100 µM (inactive) | > 100 µM (inactive) | > 100 µM (inactive) | > 100 µM (inactive) | > 100 µM (inactive) | > 100 µM (inactive) | > 100 µM (inactive) | > 100 µM (inactive) | > 100 µM (inactive) | > 100 µM (inactive) | > 100 µM (inactive) | > 100 µM (inactive) | > 100 µM (inactive) | > 100 µM (inactive) | > 100 µM (inactive) | > 100 µM (inactive) | > 100 µM (inactive) | > 100 µM (inactive) |
| CCC1(CC)SCc2nc3ccccc3n21 | 66.4 µM (inactive) | 40.1 µM (inactive) | 35.2 µM (inactive) | 33.4 µM (inactive) | 50 µM (inactive) | 94.6 µM (inactive) | 26 µM (inactive) | 32.3 µM (inactive) | 23.9 µM (inactive) | 34.8 µM (inactive) | 26 µM (inactive) | 22.8 µM (inactive) | 27.7 µM (inactive) | 25.6 µM (inactive) | 32.1 µM (inactive) | 20.6 µM (inactive) | 38.4 µM (inactive) | 13.8 µM (inactive) | 52 µM (inactive) | 36.5 µM (inactive) |
| CC(=O)N(CN1C(=O)CCC1C(=O)O)c1ccccc1 (stereo not given) | > 53.8 µM (inactive) | > 59.7 µM (inactive) | > 57.3 µM (inactive) | > 54.2 µM (inactive) | > 61.4 µM (inactive) | > 100 µM (inactive) | > 55.7 µM (inactive) | > 55 µM (inactive) | > 55.3 µM (inactive) | > 56.9 µM (inactive) | > 100 µM (inactive) | > 54.2 µM (inactive) | > 56.2 µM (inactive) | 29.9 µM (inactive) | > 54.5 µM (inactive) | > 100 µM (inactive) | > 52.4 µM (inactive) | > 55.8 µM (inactive) | > 52.4 µM (inactive) | > 52.6 µM (inactive) |
| CCN(CC)/C(SCc1ccccc1)=C(\C(Cl)=C(Cl)Cl)[N+](=O)[O-] | 16 µM (inactive) | 13.6 µM (inactive) | 28.2 µM (inactive) | 12.5 µM (inactive) | 18 µM (inactive) | 21.2 µM (inactive) | 15.8 µM (inactive) | 25.8 µM (inactive) | 21 µM (inactive) | 14.1 µM (inactive) | 17.7 µM (inactive) | 13.5 µM (inactive) | 17.8 µM (inactive) | 17.1 µM (inactive) | 11.7 µM (inactive) | 15.6 µM (inactive) | 16.9 µM (inactive) | 21.6 µM (inactive) | 18.4 µM (inactive) | 36.1 µM (inactive) |
| CCCCCCCCCCCCCCCCCCN(C)CC(COC)OP(=O)([O-])OCC[N+](C)(C)C (stereo not given) | 0.938 µM (active) | 3.77 µM (inactive) | 1.33 µM (inactive) | 1.51 µM (inactive) | 2.22 µM (inactive) | 1.42 µM (inactive) | 0.495 µM (active) | 1.28 µM (inactive) | 0.644 µM (active) | 5.14 µM (inactive) | 5.08 µM (inactive) | 2.83 µM (inactive) | 3.16 µM (inactive) | 17.9 µM (inactive) | 2.24 µM (inactive) | 2.54 µM (inactive) | 3.27 µM (inactive) | 0.374 µM (active) | 1.48 µM (inactive) | 1.07 µM (active) |
| O=C/C=C/c1ccco1 | > 100 µM (inactive) | > 100 µM (inactive) | > 100 µM (inactive) | 9.48 µM (inactive) | > 100 µM (inactive) | > 100 µM (inactive) | 5.56 µM (inactive) | > 100 µM (inactive) | > 100 µM (inactive) | > 100 µM (inactive) | > 100 µM (inactive) | > 100 µM (inactive) | > 100 µM (inactive) | > 100 µM (inactive) | > 100 µM (inactive) | > 100 µM (inactive) | > 100 µM (inactive) | > 100 µM (inactive) | > 100 µM (inactive) | 61.8 µM (inactive) |
